In ChEMBL document CHEMBL1129004, “Synthesis and in vitro cytotoxicity of cis-(glycolato-O,O)-[2-substituted-(4R,5R)-4,5-bis(aminomethyl)-1,3-dioxolane]platinum (II)” (Bioorg Med Chem Lett, 1996):

Columns and labels:
Type in all cases: functional, cell-based
[1] = system: KATO III stomach cancer cell line; experiment: Compound was tested in vitro for cytotoxic activity against KATO III human stomach cancer cell line by MTT assay
MKN-45 = experiment: Compound was tested in vitro for cytotoxic activity against MKN-45 human stomach cancer cell line by MTT assay
PC-9 = experiment: Compound was tested in vitro for cytotoxic activity against PC-9 human non-small cell lung cancer cell line by MTT assay
PC-14 = experiment: Compound was tested in vitro for cytotoxic activity against PC-14 human non-small cell lung cancer cell line by MTT assay

CARBOPLATIN
IC50 [1]: 49.7 µM
IC50 (MKN-45): 32.4 µM
IC50 (PC-9): 60.5 µM
IC50 (PC-14): 9.7 µM

CISPLATIN
IC50 [1]: 5.2 µM
IC50 (MKN-45): 3.7 µM
IC50 (PC-9): 5 µM
IC50 (PC-14): 1.5 µM
